Measurements from US20230263786A1, “MODULATION OF DRUG-DRUG INTERACTIONS OF VADADUSTAT” (Akebia Therapeutics, Inc., priority 2020, published 2023).
“And” between values parts separate entries of the source, which are not always exact repeats. Equal values may be shown once.

Key:
[1] = [14C]-labeled Compound 1 650 mg metabolism and excretion; type: in vivo, human; settings: single oral 650 mg [14C]-labeled Compound 1, healthy adult males
Source text: Compound 1 is metabolized via UGT, mainly producing O-glucuronide conjugates.
The urinary excretion rate of this drug and acyl glucuronide is less than 1% of the total radioactivity.

[2] = Phase I single-dose study, moderate hepatic impairment versus normal hepatic function; type: in vivo, human; settings: single 450 mg; for AUC0-inf, plasma, total / AUC0-last, plasma, total / Cmax, plasma, total / Elimination Half-life (t1/2): mean ± SD
Method: A phase I, open-label, parallel-group, single-dose study was conducted to evaluate the pharmacokinetics (PK) of 450 mg vadadustat administered in adults with moderate hepatic impairment (Child-Pugh Class B) versus those with normal hepatic function. The pharmacokinetic (pK) parameters of Compound 1 were characterized. Safety and tolerability were assessed throughout the study.
Inclusion criteria: participants were male and female adults between 18 and 70 years of age, with either normal hepatic function or moderate hepatic impairment based on the Child-Pugh classification (Child-Pugh Class B [score 7-9]). Moderate hepatic impairment was defined by the presence and severity of elevated bilirubin levels, decreased serum albumin levels, elevated international normalized ratios >2.20, ascites, and hepatic encephalopathy.
Pharmacokinetics. […] PK parameters Ae0-72, Fe %0-72, and CL, were estimated from the urine concentration-time profiles.
8 subjects with hepatic impairment and 8 matched subjects with normal hepatic function were enrolled in the study. All subjects received a single oral 450-mg dose of vadadustat on Day 1 and were required to fast for at least 10 hours before dosing and for 4 hours after dosing.

[3] = Phase I ferrous sulfate tablet interaction study; settings: for Metabolite Ratio AUC(0-inf) / Metabolite Ratio AUC(0-t) / Metabolite Ratio Cmax: Metabolite/Parent; for AUC(0-inf) / AUC(0-t) / Cmax / Tmax: metabolite in plasma; for AUC(0-inf) / AUC(0-t) / Cmax: mean; for Tmax: median;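 on all read-outs here: crossover in fasted human subjects with four-day washout between periods, plasma glucuronide metabolite pharmacokinetics, ratios computed as metabolite over parent for AUC and Cmax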
Method: Pharmacokinetics. […] The ratio of metabolite to parent was calculated for each glucuronide metabolite for AUC(0-t); and AUC(0-inf) and Cmax.
Comparative Bioavailability. […] Factors incorporated in the model included: Sequence, Subject (Sequence), Period, and Treatment.
Treatment of Subjects. […] All subjects are dosed on the same day for Day 1 of Confinement Period 1, and are crossed over to the alternate treatment and are dosed on the same day for Day 1 of Confinement Period 2. Both treatments are administered in a fasted state, and a four-day Washout Period separates each Confinement Period.

[4] = Phase I interaction study Part 2 Arm 1: sulfasalazine; type: in vivo, human; settings: for AUC(0-inf) / Cmax / AUC(0-t): both sexes, 500 mg
Method: The study included 3 periods as follow: • Screening: performed within 28 days prior to dosing on Day 1. • Treatment period: […] In Part 2 (Arm 1): For each dose of sulfasalazine administered, blood samples for PK analysis were collected at the following timepoints: pre-dose, 0.5, 1, 2, 3, 4, 5, 6, 8, 12, 18, 24, 36, 48, 60, 72 and 96 hours postdose. […] Arm 1 (sulfasalazine): 26 subjects were treated with the study drug. On the morning of Day 1, subjects received a single oral dose of sulfasalazine 500 mg after at least a 10-hour overnight fast. Subjects would remain fasted for approximately 4 hours after dosing. Following a 5-day washout period (Days 1-5) subjects received vadadustat 600 mg once daily beginning on Day 6 for 7 days (Days 6-12). […] On Day 9, subjects received their morning dose of vadadustat 600 mg along with a single oral dose of sulfasalazine 500 mg after at least a 10-hour overnight fast. Subjects would remain fasted for at least 4 hours after dosing. Subjects were discharged from the clinical research unit on the morning of Day 13.

[5] = Phase I interaction study Part 2 Arm 2: pravastatin; type: in vivo, human; settings: for Cmax / AUC(0-inf) / AUC(0-t): both sexes, human, plasma, oral; for AUC(0-inf): read-out: AUC0-inf, Geometric LSM; for AUC(0-t): read-out: AUC0-last, Geometric LSM
Method: The pharmacokinetic (pK) parameters and safety of said drugs administered alone and in combination with Compound 1 were characterized.
Arm 2 (pravastatin): 26 subjects were treated with the study drug. On the morning of Day 1, subjects received a single oral dose pravastatin 40 mg after at least a 10-hour overnight fast. Subjects would remain fasted for approximately 4 hours after dosing. Following a 2-day washout period (Days 1-2) subjects received vadadustat 600 mg once daily beginning on Day 3 for 4 days (Days 3-6). When administered alone, vadadustat would be administered in the morning at least 30 minutes prior to breakfast. On Day 6, subjects received their morning dose of vadadustat 600 mg along with a single oral dose of pravastatin 40 mg after at least a 10-hour overnight fast. Subjects would remain fasted for at least 4 hours after dosing. Subjects were discharged from the clinical research unit on the morning of Day 7.

[6] = Phase I interaction study Part 1: rosuvastatin; type: in vivo, human; settings: for AUC(0-inf) / AUC(0-t) / Cmax: both sexes, human, plasma, oral; for AUC(0-inf): read-out: AUC0-inf, Geometric LSM; for AUC(0-t): read-out: AUC0-last, Geometric LSM; for Cmax: read-out: Cmax, Geometric LSM
Method: In Part 1, 34 subjects were treated with the study drug. On the morning of Day 1, subjects received a single oral dose of rosuvastatin 20 mg after at least a 10-hour overnight fast. Subjects would remain fasted for at least 4 hours after dosing. […] When administered alone, vadadustat would be administered in the morning at least 30 minutes prior to breakfast. On Day 10, subjects received their morning dose of vadadustat 600 mg along with a single oral dose of rosuvastatin 20 mg after at least a 10-hour overnight fast. Subjects would remain fasted for at least 4 hours after dosing. Subjects were discharged from the clinical research unit (CRU) on the morning of Day 15.

[7] = Phase I interaction study Part 3 Arm 2: simvastatin; type: in vivo, human
Method: Subjects would remain fasted for approximately 4 hours after dosing. […] Subjects would remain fasted for at least 4 hours after dosing. Subjects were discharged from the clinical research unit on the morning of Day 6.

[8] = Phase I interaction study Part 3 Arm 1: atorvastatin; type: in vivo, human; settings: for AUC0-∞, Ratio of geometric mean value Combined/alone / Cmax, Ratio of geometric mean value Combined/alone: Atorvastatin 40 mg, Compound 1 600 mg; for AUCtau, Geometric LSM Ratio (A + V/A) / Cmax, Geometric LSM Ratio (A + V/A): atorvastatin 40 mg QD, vadadustat 600 mg QD; for AUC / Cmax: both sexes, human, plasma, oral, 40 mg; for AUC: heading: AUCtau, Geometric LSM; for Cmax: read-out: Cmax, Geometric LSM
Source text: Subjects were discharged from the clinical research unit on the morning of Day 9.

[9] = treatment Compound 1 450 mg alone
[10] = administered with Compound 1 compared to alone
[11] = Treatment P + V: pravastatin 40 mg + vadadustat 600 mg QD
[12] = Treatment P: pravastatin 40 mg alone
[13] = pravastatin 40 mg, vadadustat 600 mg QD
[14] = Rosuvastatin 20 mg, Compound 1 600 mg
[15] = Treatment R + V: rosuvastatin 20 mg + vadadustat 600 mg QD
[16] = Treatment R: rosuvastatin 20 mg alone
[17] = rosuvastatin 20 mg, vadadustat 600 mg QD
[18] = both sexes, human, in vivo, 40 mg

## O=C(O)CNC(=O)c1ncc(-c2cccc(Cl)c2)cc1O[C@@H]1O[C@H](C(=O)O)[C@@H](O)[C@H](O)[C@H]1O [Compound 1-O-glucuronide]
[1]
  share of the total radioactivity (AUC0-∞) in plasma: about 15%
[2]; Moderate Hepatic Impairment
  Ae0-72, cumulative amount excreted in urine up to 72 hours: 585 ± 125.1 mg
  Fe%0-72, cumulative fraction excreted in urine: 82.8% and 82.8 ± 17.69%
  AUC0-inf, plasma, total: 70900 ± 24300 ng·h/mL
  AUC0-last, plasma, total: 68900 ± 24200 ng·h/mL
  Cmax, plasma, total: 5850 ± 1500 ng/mL
  Elimination Half-life (t1/2): 6.01 ± 2.1 h
[2]; Normal Liver Function
  Ae0-72, cumulative amount excreted in urine up to 72 hours: 473 ± 83.76 mg
  Fe%0-72, cumulative fraction excreted in urine: 66.9% and 66.9 ± 11.84%
  AUC0-inf, plasma, total: 63800 ± 21300 ng·h/mL
  AUC0-last, plasma, total: 62500 ± 21300 ng·h/mL
  Cmax, plasma, total: 6650 ± 2400 ng/mL
  Elimination Half-life (t1/2): 4.74 ± 1.3 h
[3]; treatment Compound 1 + Iron
  Metabolite Ratio AUC(0-inf): 0.0943
  Metabolite Ratio AUC(0-t): 0.0935
  Metabolite Ratio Cmax: 0.0748
  AUC(0-inf): 19700 ng·h/mL
  AUC(0-t): 18600 ng·h/mL
  Cmax: 2830 ng/mL
  Tmax: 5.0 h
[3]; treatment Compound 1 alone
  Metabolite Ratio AUC(0-inf): 0.104
  Metabolite Ratio AUC(0-t): 0.104
  Metabolite Ratio Cmax: 0.0848
[3]; [9]
  AUC(0-inf): 44500 ng·h/mL
  AUC(0-t): 42800 ng·h/mL
  Cmax: 6070 ng/mL
  Tmax: 4.0 h

## O=C(CNC(=O)c1ncc(-c2cccc(Cl)c2)cc1O)O[C@@H]1O[C@H](C(=O)O)[C@@H](O)[C@H](O)[C@H]1O [Compound 1-acyl-glucuronide]
[3]; treatment Compound 1 + Iron
  Metabolite Ratio AUC(0-t): 0.000458
  Metabolite Ratio Cmax: 0.000909
  AUC(0-t): 86.4 ng·h/mL
  Cmax: 32.2 ng/mL
  Tmax: 3.0 h
[3]; treatment Compound 1 alone
  Metabolite Ratio AUC(0-t): 0.00543
  Metabolite Ratio Cmax: 0.00112
[3]; [9]
  AUC(0-t): 208 ng·h/mL
  Cmax: 82.6 ng/mL
  Tmax: 1.75 h

## Nc1ccc(O)c(C(=O)O)c1 [Mesalamine, mesalamine]
[4]; Treatment S: sulfasalazine 500 mg alone
  AUC0-last, Geometric LSM: 220 ng·h/mL
[4]; human, in vivo
  AUC(0-inf): 247 ng·h/mL
  Cmax: 22 ng/mL

## CC[C@H](C)C(=O)O[C@H]1C[C@H](O)C=C2C=C[C@H](C)[C@H](CC[C@@H](O)C[C@@H](O)CC(=O)O)[C@H]21 [Pravastatin, pravastatin]
[5]; [10]
  change of systemic exposure: unchanged
[5]; [11]
  Cmax: 44 ng/mL
  AUC(0-inf): 137000 ng·h/mL
  AUC(0-t): 134000 ng·h/mL
[5]; [12]
  Cmax: 53.2 ng/mL
  AUC(0-inf): 134000 ng·h/mL
  AUC(0-t): 130000 ng·h/mL
[5]; [13]
  AUC0-inf, Geometric LSM Ratio (P + V/P): 102.03%
  AUC0-last, Geometric LSM Ratio (P + V/P): 102.98%
  Cmax, Geometric LSM Ratio (P + V/P): 82.74%

## CC(C)c1nc(N(C)S(C)(=O)=O)nc(-c2ccc(F)cc2)c1/C=C/[C@@H](O)C[C@@H](O)CC(=O)O [Rosuvastatin, rosuvastatin]
[6]; [14]
  AUC0-∞, Ratio of geometric mean value Combined/alone: 246.86%
  Cmax, Ratio of geometric mean value Combined/alone: 274.80%
[6]; [15]
  AUC(0-inf): 254 ng·h/mL
  AUC(0-t): 249 ng·h/mL
  Cmax: 27.9 ng/mL
[6]; [16]
  AUC(0-inf): 103 ng·h/mL
  AUC(0-t): 98.4 ng·h/mL
  Cmax: 10.2 ng/mL
[6]; [17]
  AUC0-inf, Geometric LSM Ratio (R + V/R): 246.86%
  AUC0-last, Geometric LSM Ratio (R + V/R): 252.86%
  Cmax, Geometric LSM Ratio (R + V/R): 274.80%

## CCC(C)(C)C(=O)O[C@H]1C[C@@H](C)C=C2C=C[C@H](C)[C@H](CC[C@@H]3C[C@@H](O)CC(=O)O3)[C@H]21 [Simvastatin, simvastatin, reference compound]
[7]; [10]
  increase of total exposure: about 2 fold

## Nc1ccc(S(=O)(=O)Nc2ccccn2)cc1 [Sulfapyridine, sulfapyridine]
[4]; human, in vivo
  AUC(0-inf): 42800 ng·h/mL
  AUC(0-t): 42400 ng·h/mL
  Cmax: 2580 ng/mL

## O=C(O)c1cc(/N=N/c2ccc(S(=O)(=O)Nc3ccccn3)cc2)ccc1O [Sulfasalazine, sulfasalazine, reference compound]
[4]; human, in vivo
  AUC(0-inf): 82700 ng·h/mL
  AUC(0-t): 82200 ng·h/mL
  Cmax: 9700 ng/mL
[4]; both, human, in vivo
  increase of systemic exposure: up to 4.5 fold

## CC(C)c1c(C(=O)Nc2ccccc2O)c(-c2ccccc2)c(-c2ccc(F)cc2)n1CC[C@@H](O)C[C@@H](O)CC(=O)O [o-hydroxy atorvastatin, (3R,5R)-7-[2-(4-fluorophenyl)-4-[(2-hydroxyphenyl)carbamoyl]-3-phenyl-5-propan-2-ylpyrrol-1-yl]-3,5-dihydroxyheptanoic acid]
[8]
  AUC0-∞, Ratio of geometric mean value Combined/alone: 112.01%
  Cmax, Ratio of geometric mean value Combined/alone: 91.20%
  AUCtau, Geometric LSM Ratio (A + V/A): 111.34%
  Cmax, Geometric LSM Ratio (A + V/A): 91.20%
  AUC: 96 ng·h/mL
  Cmax: 15 ng/mL

## CC(C)c1c(C(=O)Nc2ccc(O)cc2)c(-c2ccccc2)c(-c2ccc(F)cc2)n1CC[C@@H](O)C[C@@H](O)CC(=O)O [p-hydroxy atorvastatin, (3R,5R)-7-[2-(4-fluorophenyl)-4-[(4-hydroxyphenyl)carbamoyl]-3-phenyl-5-propan-2-ylpyrrol-1-yl]-3,5-dihydroxyheptanoic acid]
[8]
  AUC0-∞, Ratio of geometric mean value Combined/alone: 167.57%
  Cmax, Ratio of geometric mean value Combined/alone: 230.48%
  AUCtau, Geometric LSM Ratio (A + V/A): 175.60%
  Cmax, Geometric LSM Ratio (A + V/A): 230.48%
  AUC: 8.92 ng·h/mL
  Cmax: 0.62 ng/mL

## CCC(C)(C)C(=O)O[C@H]1C[C@@H](C)C=C2C=C[C@H](C)[C@H](CC[C@@H](O)C[C@@H](O)CC(=O)O)[C@H]21 [β-hydroxysimvastatin acid, (3R,5R)-7-[(1S,2S,6R,8S,8aR)-8-(2,2-dimethylbutanoyloxy)-2,6-dimethyl-1,2,6,7,8,8a-hexahydronaphthalen-1-yl]-3,5-dihydroxyheptanoic acid]
[7]; [18]
  AUC(0-inf): 20200 ng·h/mL
  AUC(0-t): 17300 ng·h/mL
  Cmax: 1850 ng/mL
